Data on 6 compounds can be found in patent publication US9120824B2, “Cyclic amine derivatives as EP4 receptor agonists” (ROTTAPHARM BIOTECH S.R.L., priority 2011, dated 2015).

Assay [1] concerns the target T1, hEP4 receptors (human EP4/HEK293 transfectant) (Homo sapiens, UniProt P35408).
T1 construct: expressed in transfected cells; host or cells: HEK-293, stably transfected; membrane fraction
The experiment in a line: [3H]-PGE2 membrane binding assay. The note with it: [3H]-PGE2 1 nM, human EP4/HEK293 membranes, compounds 1 nM to 1 μM; Ki by Cheng-Prusoff, pKi = -log10 Ki (M). The text has this: (§1) Stable Expression of Human EP4 Receptors in the Human Embryonic Kidney (HEK293) Cell Line
(§2) The cDNA clone of human EP4 receptor (NM_000958.2) was obtained from Invitrogen™: Ultimate™ ORF Clone Collection-Clone ID IOH46525. The coding sequence was subcloned in expression vector pcDNATM6.2/V5-DEST by Gateway technology (Invitrogen™).
(§3) Human embryonic kidney cells (HEK-293) were stably transfected with expression vector for human EP4 receptor in according to the method described in FuGENE®6 Transfection Reagent's manual (Roche Applied Science®).
(§4) Preparation of Membrane Fraction:
(§5) The EP4 transfected cells were grown in Dulbecco's modified Eagle's medium containing 10% fetal bovine serum and 10 μg/ml Blasticidin S HCl (selection medium) at 37° C. in a humidified atmosphere of 5% CO2 in air.
(§6) For the membrane preparation, cells in flask were harvested by hypotonical/mechanical lysis with chilled (4° C.) TE buffer (5 mM TRIS, 5 mM etylenediamine tetra-acetic acid (EDTA), pH 7.4).
(§7) Cells were detached and lysed with 10 ml of hypotonic lysis buffer and by scraping. The cell lysate was vortexed for 30 sec and centrifuged at 40000×g at 4° C. for 22 min.
a) Membrane Binding Assay[3H]-Prostaglandin E2
The membrane pellet was resuspended in the same buffer (5 mM TRIS, 5 mM ethylenediamine tetra-acetic acid (EDTA), pH 7.4), and protein concentration was determined by Bradford method (Bio-Bad® assay).
This membrane preparation was stored at −80° C. freezer until use for binding assay.
([^3H]-PGE2) membranes binding assays toward hEP4 receptors (human EP4/HEK293 transfectant, see above) and hEP2 receptors (human EP2/HEK293 transfectant, purchased from PerkinElmer Inc) were performed in 10 mM MES-KOH buffer pH6, containing 10 mM MgCl2 and 1 mM CaCl2 for EP4 binding assay or 50 mM Tris-Cl, BSA 0.5% for EP2 binding assay (according to supplier indication).
Ten microgram of protein from membrane fractions were incubated in a total volume of 0.1 ml (EP4) or 0.2 ml (EP2) with 1 nM (EP4) or 3 nM (EP2) [^3H]-PGE2 (PerkinElmer Inc, 171 Ci/mmol). In both assays to determine the total binding or non specific binding, 1% DMSO or 1 μM prostaglandin E2 (EP4) or 100 μM (EP2) were added to reaction mixtures, respectively. Incubation was conducted in a polypropylene 96 multiwell for 90 min (EP4) or 60 min (EP2) at room temperature prior to separation of the bound and free radioligand by vacuum manifold rapid filtration on glass fiber filters (Unifilter GFB96, PerkinElmer Inc) pre-soaked in 0.3% polyethyleneimine. Filters were washed with ice cold buffer pH 7.4 (50 mM HEPES, NaCl 500 mM, BSA 0.1% for EP4 binding assay or 50 mM Tris-Cl for EP2 binding assays) and the residual [^3H]-PGE2 binding determined by solid scintillation counter (TopCount, PerkinElmer Inc).
The affinity (Ki) of each compound was calculated according to the Cheng-Prousoff equation: Ki=IC50/(1+([C]/Kd)). Results were expressed as pKi (−log 10 Ki (M)

The next assay concerns the target T2, human EP4 receptor (Homo sapiens, UniProt P35408).
T2 construct: expressed in transfected cells; host or cells: HEK-293, stably transfected; membrane fraction
Kind of assay: cAMP assay on human EP4 membrane of transfected cells (AlphaScreen). To be noted: human EP4 HEK293 cell membranes. It is filed as biochemical.
Excerpt: as §1, §2, §3, §4, §5, §6, §7
b) cAMP Assay on Human EP4 Membrane of Transfected Cells.
The assay is based on the competition between endogenous cAMP and exogenously added biotinylated cAMP. The capture of cAMP is achieved by using a specific antibody conjugated to […] beads.
Cell membranes prepared as described above, were resuspended in 1 ml stimulation buffer (HBSS 1×+BSA 0.1%+IBMX 0.5 mM+HEPES 5 mM+MgCl2 10 mM+GTP 1 nM+GDP 10 μM+ATP 100 μM-pH 7.4). Cell membranes were dispensed into white 384-well microplates at final concentration of 1 μg/well and used for the determination of cAMP with the alphascreen cAMP functional assay (EnVision-PerkinElmer). Cell membrane/anti-cAMP Acceptor beads mix (5 μl) and a mixture of analysed compounds (dissolved in 100% DMSO to a final maximal concentration of 0.01% DMSO)/PGE2 (5 μl) were incubated at room temperature (22-23° C.) for 30 min in the dark. The Biotinylated-cAMP and donor beads (15 μl) were dispensed into each well to start the competition reaction. After 1 h incubation RT (22-23° C.) in the dark the plate was read using EnVision platform to determine the cAMP level (excitation: 680 nm; emission:520,620 nm).
cAMP standard curve (concentration range from 1×10-6 to 1×10-11 M in log intervals) with a negative control (no cAMP)
a positive control:forskolin 10 μM
Antagonism studies were performed stimulating HEK293 cell membrane with PGE2 3 nM. The AlphaScreen signal is plotted as a function of log concentration of cAMP and EC50 is determined. EC50 value is calculated by […].

T2 sequence (P35408 whole entry): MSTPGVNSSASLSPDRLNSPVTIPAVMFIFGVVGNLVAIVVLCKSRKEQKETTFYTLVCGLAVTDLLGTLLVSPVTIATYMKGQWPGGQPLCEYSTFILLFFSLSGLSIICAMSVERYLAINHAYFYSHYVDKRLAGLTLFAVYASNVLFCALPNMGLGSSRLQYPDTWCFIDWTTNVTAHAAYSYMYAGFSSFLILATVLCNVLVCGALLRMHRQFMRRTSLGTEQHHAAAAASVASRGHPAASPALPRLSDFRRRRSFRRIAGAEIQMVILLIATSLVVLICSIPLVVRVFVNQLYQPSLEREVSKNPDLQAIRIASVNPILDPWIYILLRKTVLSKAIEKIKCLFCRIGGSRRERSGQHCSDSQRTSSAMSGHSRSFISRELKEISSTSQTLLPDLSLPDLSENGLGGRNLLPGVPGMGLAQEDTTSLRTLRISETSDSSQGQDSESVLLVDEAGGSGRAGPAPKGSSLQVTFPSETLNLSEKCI
T1 sequence (P35408 whole entry): as above

Take `C[C@H](NC(=O)[C@H]1CCCCN1Cc1cccc(C(F)(F)F)c1)c1ccc(C(=O)O)cc1` [Example E5, lithium 4-((S)-1-((R)-1-(3-(trifluoromethyl)benzyl)piperidine-2-carboxamido)ethyl)benzoate]: the affinity in assay [1], expressed as Ki, was 3.16e-08 M. In addition, the EC50 – broadly, the concentration giving half of the maximal effect – at human EP4 receptor came out at 1 nM.

For the compound `O=C(O)c1ccc(C2(NC(=O)[C@H]3CCCCN3Cc3cccc(C(F)(F)F)c3)CC2)cc1` [Example E9, lithium (R)-4-(1-(1-(3-(trifluoromethyl)benzyl)piperidine-2-carboxamido)cyclopropyl)benzoate], the Ki (as a rule, the dissociation constant of the complex between target and ligand, obtained from inhibition or displacement) in assay [1] was 7.94e-09 M. At human EP4 receptor, this compound yielded a half-maximal effective concentration (EC50) of 2.9 nM.

Regarding `Cc1cc(CN2CCCC[C@@H]2C(=O)NC2(c3ccc(C(=O)O)cc3)CC2)ccc1F` [Example E12, (R)-4-(1-(1-(4-fluoro-3-methylbenzyl)piperidine-2-carboxamido)cyclopropyl)benzoic acid], in assay [1], the Ki was 3.16e-08 M. The compound also displayed an EC50 at human EP4 receptor of 6 nM.

The compound `O=C(O)c1ccc(C2(NC(=O)[C@H]3CCCCN3Cc3ccc(F)c(C(F)(F)F)c3)CC2)cc1` [Example E13, lithium (R)-4-(1-(1-(4-fluoro-3-(trifluoromethyl)benzyl)piperidine-2-carboxamido)cyclopropyl)benzoate] gave a Ki in assay [1] of 1e-08 M. On human EP4 receptor, this compound came in with a 50% effective concentration (EC50) of 8 nM.

As to `C[C@H](NC(=O)[C@H]1CCCN1Cc1cccc(C(F)(F)F)c1)c1ccc(C(=O)O)cc1` [Example E15, lithium 4-((S)-1-((R)-1-(3-(trifluoromethyl)benzyl)pyrrolidine-2-carboxamido)ethyl)benzoate], the affinity in assay [1], expressed as Ki, was 2e-08 M. The compound further gave a 50% effective concentration (EC50) on human EP4 receptor of 13.5 nM.

Consider `C[C@H](NC(=O)[C@H]1C[C@@H](O)CN1Cc1cccc(C(F)(F)F)c1)c1ccc(C(=O)O)cc1` [Example E19, lithium 4-((S)-1-((2R,4R)-4-hydroxy-1-(3-(trifluoromethyl)benzyl)pyrrolidine-2-carboxamido)ethyl)benzoate], for which, in assay [1], affinity was put at a Ki of 3.98e-08 M. Also, a half-maximal effect on human EP4 receptor (EC50) was put at 0.1 nM.
